Laboratory results: patent publication US12653799B2, “Compositions and methods for treating Alzheimer's disease” (ELEANORE BENNETT CHARITABLE TRUST #2, priority 2021, dated 2026)

What was measured:
[1] = test system: SH-SY5Y cells; experiment: Cell viability, MTT assay, Aβ42-expressing SH-SY5Y cells
Method: FIG. 2A. Cell viability as measured by MTT assay.
SH-SY5Y cells were washed twice in warm Dulbecco's phosphate-buffered saline (DPBS) and incubated in 1 ml DMEM containing 0.5 mg (3-[4,5-dimethylthiazol-2-yl]-2,5-diphenyltetrazolium bromide) (MTT or WST; Molecular Probes, Eugene, OR) for 2-3 h at 37° C. and 5% CO2. The medium was aspirated and the cells were washed twice with pre-warmed DPBS. The formazan salts were dissolved in 1 ml pure ethanol before use. Cells were homogenized by repetitive pipetting and centrifuged for 5 min at 4500 rpm, and the supernatant collected. Absorbance was read against an ethanol blank at 590 nm.

[2] = test system: APP/PS-1 transgenic mice; experiment: Morris water maze in APP/PS-1 transgenic mice, PS48 via diet; assay type: in vivo, mouse; conditions: for time spent over the platform area, acquisition probe: TG
Method: Next, a series of experiments was performed using a Morris water maze. WT mice fed standard diet (SD) reached the hidden platform in a shorter time compared to TG-SD mice. […] The PS48 effect was more pronounced within the standard diet condition. *p<0.05, **p<0.01, ANOVA; ^p<0.05, t-test. WT mice fed standard diet (SD) reached the hidden platform zone in a shorter distance compared to TG-SD mice. […] The PS48 effect was more pronounced within the standard diet condition. Memory acquisition for the location of the escape platform location was tested in 12-month-old APP/PS1 transgenic and littermate mice. The removed escape platform was located in the northeast quadrant of the tank. […] The 10 cm platform is indicated in the figure by the shaded circle in the upper right quadrant. The following metrics were quantified: (1) time spent swimming over the target area, (2) latency to attain the target area, (3) path length to platform, and (4) number of crossings over the area. […] Transgenic animals fed high fat diet (HFD) performed less well than those on standard diet. […] Lower latency values indicate better recall for the target location. […] Animals were retrained with the platform in the SE quadrant and probe phase conducted as before. FIGS. 13E-13H show path length taken, in cm, to first reach hidden platform. […] Similar probe results were obtained in the subsequent reversal trial. […] (±1 SEM, n=16 data points per group, *p<0.05, **p<0.01, ++p<0.001). […] The data has similar import to time spent over platform area above.

[3] = test system: C57BL/6 mice; experiment: Safety of PS48 by oral gavage for 14 days; assay type: in vivo, mouse; conditions: oral gavage 1 or 50 mg/kg per day
Method: (§1) Finally, a series of in vivo experiments was performed to assess safety of treatment with PS48. […] Similarly, when PS48 was given by oral gavage over 2 weeks, there were no signs of toxicity by gross observation, organ specific necropsy, or weight.
Adult C57BL/6 mice (n=6 per group) were administered PS48 for 14 days. A low dose group received 1 mg/kg per day, while a high dose group received 50 mg/kg per day. A negative control group received corn oil. […] Body and organ specific weights were unaffected at necropsy. Fasting serum glucose at trial end was unchanged (˜150 mg/dl).

[4] = test system: Akt Ser473 phosphorylation in rat primary cortical neurons; experiment: Non-amyloid insulin resistance model (palmitate/ceramide) in primary cortical neurons; assay type: cell-based; conditions: palmitate 300 μM; PS48 100 nM, 24 hrs; insulin 20 nM
Method: FIG. 1B. Non-amyloid-based insulin resistance model. Partial restoration of insulin-induced Akt activation in rat primary cortical neurons exposed to the fatty acid neurotoxin palmitate (300 μM). […] . The same result was obtained in ceramide-treated (50 μM) primary neurons (not shown); *p<0.05). Representative western blot above, n=3 experiments.
SH-SY5Y were left undifferentiated.

[5] = test system: Akt Ser473 and mTOR Ser2448 phosphorylation in rat primary cortical neurons; experiment: Over-activation test in insulin-stimulated primary cortical neurons; conditions: PS48 0.01 to 100 μM for 2 hrs or 24 hrs; 20 nM insulin
Excerpt: Western blots shown above and corresponding quantified results shown below. n=2.

[6] = test system: phospho-GSK (GSK3α/β) in SH-SY5Y cells; experiment: Cellular phospho-GSK levels in SH-SY5Y cells; assay type: cell-based; conditions: PS48 1 μM 0 to 2 hours; 0-100 μM 20 min
Method: FIG. 8B. PS48 over time (1 μM; 0 to 2 hours) and concentration (20 min; 0-100 μM) was applied to SH-SY5Y cells. No changes in cellular phospho-GSK levels were observed.

[7] = test system: Akt Ser 473 phosphorylation in N2a cells; experiment: Insulin sensitization at subthreshold insulin in N2a cells; conditions: insulin 3 nM, 15 min; PS48 0.1 to 100 μM, 2 hrs
[8] = test system: C2C12 myotubes; experiment: Cell viability (cytoprotection) in C2C12 myotubes
Method: Cell viability as measured by MTT assay.
Mouse C2C12 cells (ATCC) were grown in Dulbecco's modified Eagle medium (DMEM), 20% fetal bovine serum (FBS) (Invitrogen), and maintained for passage below 60% confluence. Cultures at or above 90% confluence were then differentiated in DMEM, 2% adult horse serum (DM) for 3 days before use.

[9] = test system: APP/PS-1 transgenic mice; experiment: Oral glucose tolerance test in APP/PS-1 transgenic mice; assay type: in vivo, mouse; conditions: TG mice on standard diet, approximately 15.5 months; p<0.05
Method: At the end of phase 2 (active drug) trial, OGTT was administered to the standard diet animals. Animals were approximately 15.5 months at the time of the assay.

[10] = biological target: T1, Akt-1 (Homo sapiens, UniProt P31749); experiment: Fluorescence polarization, FAM-Aβ42 binding to Akt-1 in solution; conditions: PS48 10, 20, and 100 μM; results not shown
T1 construct: purchased Amsbio

[11] = test system: C57BL/6 mice; experiment: Safety of intravenous PS48 over 2 weeks; assay type: in vivo, mouse
Method: as §1
For intravenous PS48, adult male C57BL/6 mice (Charles River, n=6 per group) were fed ad libitum and dosed with PS48 or vehicle in an escalating schedule from 3-20 mg/kg IV daily; 3-10 mg/kg days 1-6, and 20 mg/kg days 7-13. Tail vein blood sugars were obtained 30, 60, and 120 minutes after every third dose.
Liver transaminases ALT and AST, as well as muscle creatine kinase (CK), were also measured to assess possible liver toxicity and possible general tissue toxicity, respectively. A change in ALT, albeit statistically significant, was very small.

T1 sequence (P31749 whole entry): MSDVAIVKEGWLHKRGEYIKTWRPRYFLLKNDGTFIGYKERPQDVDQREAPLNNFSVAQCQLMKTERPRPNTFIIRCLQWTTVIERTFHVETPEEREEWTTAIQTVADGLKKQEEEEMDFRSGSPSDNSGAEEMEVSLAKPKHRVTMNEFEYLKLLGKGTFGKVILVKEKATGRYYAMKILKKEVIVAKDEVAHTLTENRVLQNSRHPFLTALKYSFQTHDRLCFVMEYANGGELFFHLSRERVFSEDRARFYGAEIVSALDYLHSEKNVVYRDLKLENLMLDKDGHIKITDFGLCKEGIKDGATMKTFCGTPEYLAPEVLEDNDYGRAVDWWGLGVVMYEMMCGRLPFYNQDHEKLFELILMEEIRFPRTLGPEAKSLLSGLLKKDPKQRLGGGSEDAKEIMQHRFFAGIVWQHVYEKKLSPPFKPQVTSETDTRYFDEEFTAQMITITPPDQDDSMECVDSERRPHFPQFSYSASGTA

Q: For `O=C(O)/C=C(/CCc1ccc(Cl)cc1)c1ccccc1` [PS48, (Z)-5-(4-chlorophenyl)-3-phenylpent-2-enoic acid], which “cell viability, comparison with PPAR agonist (FIG. 2B)” value ([1]; PS48 10 μM, pioglitazone 5 μM) is on record?
A: The value was “compared favorably”.

Q: What about the “cell viability (MTT) of amyloid-bearing cells” value ([1]; pretreatment before doxycycline, PS48 10 μM or insulin 100 nM, harvested at 48 hrs) of the same molecule?
A: Its value is “reverted cells to basal condition or better”.

Q: What about the “latency to reach the hidden platform, place learning and reversal tasks” value ([2]; PS48 orally through diet, SD and HFD, more pronounced on standard diet) of the same molecule?
A: Its value is “tended to reduce latency”.

Q: And the “time spent over the platform area, acquisition probe” value ([2]; HFD supplemented with PS48, p<0.01 vs Tg HFD w/V)?
A: Its value is “most significant improvement”.

Q: And the “time spent over the platform area, acquisition probe” value ([2]; standard diet with PS48, p<0.10 vs vehicle fed)?
A: The value was “improved in this measure”.

Q: And the “path length, acquisition and reversal data combined” value ([2]; Tg HFD group)?
A: The value was “significantly benefited”.

Q: And the “latency to platform, acquisition probe” value ([2]; Tg mice on standard or high fat diet vs vehicle controls)?
A: Its value is “Results favored”.

Q: And the “path length to first reach hidden platform, probe” value ([2]; Tg on standard or HFD diet)?
A: Its value is “trended improvements in the direction of WT”.

Q: And the “crossing numbers over removed platform location” value ([2]; both probe trials combined, p<0.05 vs vehicle)?
A: Its value is “performed significantly better than vehicle”.

Q: What about the “distance to zone to reach the hidden platform” value ([2]; dietary PS48, SD and HFD, more pronounced on standard diet) of the same molecule?
A: The value was “tended to reduce distance to zone”.

Q: And the behavioral changes [3]?
A: Its behavioral changes is “No overt behavioral changes”.

Q: And the “body and organ specific weights at necropsy” value [3]?
A: Its value is “unaffected”.

Q: And the tolerability [3]?
A: The tolerability was “well tolerated”.

Q: What about the “fasting serum glucose at trial end” value ([3]; unchanged) of the same molecule?
A: Its value is roughly 150 mg/dL.

Q: And the “inhibition of Akt Ser473 phosphorylation by palmitate” value [4]?
A: Its value is “partly reversed inhibition of Akt Ser473 phosphorylation by palmitate”.

Q: And the “Akt Ser473 and mTOR Ser2448 phosphorylation” value [5]?
A: The value was “did not over-activate Akt Ser473 or affect mTOR Ser2448 phosphorylation”.

Q: And the “resting cellular pGSK levels” value [6]?
A: Its value is “no effect”.

Q: What about the “phosphorylation of Ser 473 at subthreshold insulin” value [7] of the same molecule?
A: Its value is “boosting the phosphorylation of Ser 473 to a 20 nM insulin-equivalence response”.

Q: What about the cytoprotection [8] of the same molecule?
A: Its cytoprotection is “same cytoprotection”.

Q: And the “response to glucose challenge (OGTT)” value [9]?
A: Its value is “helped to normalize the glucose response”.

Q: What about the “effect of PS48 additions on polarization signal” value [10] of the same molecule?
A: Its value is “did not affect either polarization signal”.

Q: And the behavioral changes ([11]; 3-20 mg/kg IV daily, 2-week trial)?
A: Its behavioral changes is “No behavioral changes”.

Q: What about the “change in muscle creatine kinase (CK)” value ([11]; IV daily for 14 days) of the same molecule?
A: Its value is “no significant change”.

Q: And the “change in ALT” value ([11]; IV daily for 14 days, statistically significant)?
A: Its value is “very small”.

Q: What about the “mean body weight or mean blood sugars” value ([11]; IV, 3-20 mg/kg daily) of the same molecule?
A: The value was “no significant change”.

Q: And the gross necropsy ([11]; IV, after 14 days)?
A: Its gross necropsy is “no abnormalities”.
